PubChem BioAssay (NCI)
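Exposure lasted 48 hours, with cells grown in 96-well plates and compounds tested at five concentrations. Here, GI50 denotes the concentration required for 50% inhibition of growth. TGI marks complete inhibition of growth.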

test system: HOP-62 NSCLC; experiment: DTP human tumour cell line panel, 48 h

SMILES	TGI	GI50
COc1cccc(NC(=O)C(C#N)=C(SC)SC)c1	> 100 µM	–
COc1ccc2cc(-c3c(-c4ccncc4)nc(-c4ccc(S(C)=O)cc4)n3C)ccc2c1 (stereo not given)	> 25 µM	> 21.1 µM

test system: HOP-92 NSCLC; experiment: DTP human tumour cell line panel, 48 h

SMILES	TGI	GI50
Cc1csc2nc(-c3ccc(Cl)c([N+](=O)[O-])c3)c(/C=N/N=C(N)N)n12	1.38 µM	–
CN(CCCNC(=O)c1nn(-c2ccc(Cl)cc2Cl)c2c1Cc1ccccc1-2)CCCNC(=O)c1nn(-c2ccc(Cl)cc2Cl)c2c1Cc1ccccc1-2	3.06 µM	–
CC(C)C1=CC23CCC4C(C)(C(=O)O)CCCC4(C)C2CC1C1C(=O)N(c2ccc(C(=O)O)cc2)C(=O)C13 (stereo not given)	> 100 µM	–
COc1cccc(NC(=O)C(C#N)=C(SC)SC)c1	> 100 µM	–
COc1ccc2cc(-c3c(-c4ccncc4)nc(-c4ccc(S(C)=O)cc4)n3C)ccc2c1 (stereo not given)	> 25 µM	5.67 µM

test system: HS 578T breast; experiment: DTP human tumour cell line panel, 48 h

SMILES	TGI	GI50
Fc1ccccc1C1SCc2nc3cc4ccccc4cc3n21 (stereo not given)	96.4 µM	–
CC(C)C1=CC23CCC4C(C)(C(=O)O)CCCC4(C)C2CC1C1C(=O)N(c2ccc(C(=O)O)cc2)C(=O)C13 (stereo not given)	> 100 µM	–
COc1cccc(NC(=O)C(C#N)=C(SC)SC)c1	> 100 µM	–
COc1ccc2cc(-c3c(-c4ccncc4)nc(-c4ccc(S(C)=O)cc4)n3C)ccc2c1 (stereo not given)	> 25 µM	13.8 µM

test system: HT29 colon; experiment: DTP human tumour cell line panel, 48 h

SMILES	TGI	GI50
Cc1csc2nc(-c3ccc(Cl)c([N+](=O)[O-])c3)c(/C=N/N=C(N)N)n12	3.26 µM	–
CN(CCCNC(=O)c1nn(-c2ccc(Cl)cc2Cl)c2c1Cc1ccccc1-2)CCCNC(=O)c1nn(-c2ccc(Cl)cc2Cl)c2c1Cc1ccccc1-2	3.42 µM	–
Fc1ccccc1C1SCc2nc3cc4ccccc4cc3n21 (stereo not given)	> 100 µM	–
CC(C)C1=CC23CCC4C(C)(C(=O)O)CCCC4(C)C2CC1C1C(=O)N(c2ccc(C(=O)O)cc2)C(=O)C13 (stereo not given)	> 100 µM	–
COc1cccc(NC(=O)C(C#N)=C(SC)SC)c1	> 100 µM	–
COc1ccc2cc(-c3c(-c4ccncc4)nc(-c4ccc(S(C)=O)cc4)n3C)ccc2c1 (stereo not given)	> 25 µM	9.06 µM

test system: IGROV1 ovarian; experiment: DTP human tumour cell line panel, 48 h

SMILES	TGI	GI50
Fc1ccccc1C1SCc2nc3cc4ccccc4cc3n21 (stereo not given)	> 100 µM	–
CC(C)C1=CC23CCC4C(C)(C(=O)O)CCCC4(C)C2CC1C1C(=O)N(c2ccc(C(=O)O)cc2)C(=O)C13 (stereo not given)	> 100 µM	–
COc1cccc(NC(=O)C(C#N)=C(SC)SC)c1	> 100 µM	–
COc1ccc2cc(-c3c(-c4ccncc4)nc(-c4ccc(S(C)=O)cc4)n3C)ccc2c1 (stereo not given)	> 25 µM	> 25 µM

test system: K-562 leukemia; experiment: DTP human tumour cell line panel, 48 h

SMILES	TGI	GI50
CN(CCCNC(=O)c1nn(-c2ccc(Cl)cc2Cl)c2c1Cc1ccccc1-2)CCCNC(=O)c1nn(-c2ccc(Cl)cc2Cl)c2c1Cc1ccccc1-2	2.97 µM	–
Fc1ccccc1C1SCc2nc3cc4ccccc4cc3n21 (stereo not given)	> 100 µM	–
CC(C)C1=CC23CCC4C(C)(C(=O)O)CCCC4(C)C2CC1C1C(=O)N(c2ccc(C(=O)O)cc2)C(=O)C13 (stereo not given)	> 100 µM	–
COc1cccc(NC(=O)C(C#N)=C(SC)SC)c1	> 100 µM	–
COc1ccc2cc(-c3c(-c4ccncc4)nc(-c4ccc(S(C)=O)cc4)n3C)ccc2c1 (stereo not given)	> 25 µM	15.6 µM

test system: KM12 colon; experiment: DTP human tumour cell line panel, 48 h

SMILES	TGI	GI50
Cc1csc2nc(-c3ccc(Cl)c([N+](=O)[O-])c3)c(/C=N/N=C(N)N)n12	4.75 µM	–
CN(CCCNC(=O)c1nn(-c2ccc(Cl)cc2Cl)c2c1Cc1ccccc1-2)CCCNC(=O)c1nn(-c2ccc(Cl)cc2Cl)c2c1Cc1ccccc1-2	4.01 µM	–
Fc1ccccc1C1SCc2nc3cc4ccccc4cc3n21 (stereo not given)	> 100 µM	–
CC(C)C1=CC23CCC4C(C)(C(=O)O)CCCC4(C)C2CC1C1C(=O)N(c2ccc(C(=O)O)cc2)C(=O)C13 (stereo not given)	> 100 µM	–
COc1cccc(NC(=O)C(C#N)=C(SC)SC)c1	> 100 µM	–
COc1ccc2cc(-c3c(-c4ccncc4)nc(-c4ccc(S(C)=O)cc4)n3C)ccc2c1 (stereo not given)	> 25 µM	> 24.1 µM

test system: LOX IMVI melanoma; experiment: DTP human tumour cell line panel, 48 h

SMILES	TGI	GI50
Cc1csc2nc(-c3ccc(Cl)c([N+](=O)[O-])c3)c(/C=N/N=C(N)N)n12	2.97 µM	–
CN(CCCNC(=O)c1nn(-c2ccc(Cl)cc2Cl)c2c1Cc1ccccc1-2)CCCNC(=O)c1nn(-c2ccc(Cl)cc2Cl)c2c1Cc1ccccc1-2	3.26 µM	–
CC(C)C1=CC23CCC4C(C)(C(=O)O)CCCC4(C)C2CC1C1C(=O)N(c2ccc(C(=O)O)cc2)C(=O)C13 (stereo not given)	> 100 µM	–
COc1cccc(NC(=O)C(C#N)=C(SC)SC)c1	> 100 µM	–
COc1ccc2cc(-c3c(-c4ccncc4)nc(-c4ccc(S(C)=O)cc4)n3C)ccc2c1 (stereo not given)	> 25 µM	> 23.4 µM
